Laboratory results published in PubChem BioAssay AID248 (DTP/NCI, 2004).
“And” between values parts separate entries of the source, which are not always exact repeats. Equal values may be shown once. Inconclusive results and toxic doses are left out.

Tested on: L1210 leukemia ip in BDF1 mice, survival T/C
Experiment: NCI In Vivo Anticancer Drug Screen. Data for tumor model L1210 Leukemia (intraperitoneal) in B6D2F1 (BDF1) mice
Settings: endpoint: mean survival time, higher = longer survival
Method in brief: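 In this screen, tumor-bearing mice given compound are compared to those given vehicle, and their survival values are reported as a treated-to-control quotient.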

[1] = dose: 100.0 mg/kg/injection, schedule: Q04DX002 (ip), vehicle: Klucel (hydroxypropylcellulose) (HPC)
[2] = dose: 200.0 mg/kg/injection, schedule: Q04DX002 (ip), vehicle: Klucel (hydroxypropylcellulose) (HPC)
[3] = dose: 400.0 mg/kg/injection, schedule: Q04DX002 (ip), vehicle: Klucel (hydroxypropylcellulose) (HPC)
[4] = dose: 100.0 mg/kg/injection, schedule: Q01DX001 (ip), vehicle: saline

SMILES: N=C(N)Cc1ccc(NC(=O)c2ccc(C(=O)Nc3ccc(CC(=N)N)cc3)cc2)cc1
- T/C (dose: 3.75 mg/kg/injection, schedule: Q01DX Z (ip), vehicle: methylcellulose (MC)): 108 % of control
- T/C (dose: 3.75 mg/kg/injection, schedule: Q01DX Z (ip), vehicle: saline): 89 % of control
- T/C (dose: 7.5 mg/kg/injection, schedule: Q01DX Z (ip), vehicle: methylcellulose (MC)): 108 % of control
- T/C (dose: 15.0 mg/kg/injection, schedule: Q01DX Z (ip), vehicle: saline): 155 % of control
- T/C (dose: 15.0 mg/kg/injection, schedule: Q01DX Z (oral), vehicle: saline): 105 % of control
- T/C (dose: 16.5 mg/kg/injection, schedule: Q01DX009 (ip), vehicle: saline with Tween-80): 171 % of control
- T/C (dose: 22.0 mg/kg/injection, schedule: Q01DX001 (ip), vehicle: carboxymethylcellulose (CMC)): 107 % of control and 109 % of control
- T/C (dose: 25.0 mg/kg/injection, schedule: Q01DX009 (ip), vehicle: saline with Tween-80): 219 % of control
- T/C (dose: 25.0 mg/kg/injection, schedule: Q01DX009 (ip), vehicle: saline): 174 % of control
- T/C (dose: 25.0 mg/kg/injection, schedule: Q04DX003 (ip), vehicle: saline): 107 % of control
- T/C (dose: 30.0 mg/kg/injection, schedule: Q01DX Z (ip), vehicle: methylcellulose (MC)): 116 % of control
- T/C (dose: 30.0 mg/kg/injection, schedule: Q01DX Z (ip), vehicle: saline): 103 % of control and 113 % of control
- T/C (dose: 30.0 mg/kg/injection, schedule: Q01DX Z (oral), vehicle: saline): 102 % of control
- T/C (dose: 33.0 mg/kg/injection, schedule: Q01DX001 (ip), vehicle: carboxymethylcellulose (CMC)): 112 % of control
- T/C (dose: 33.0 mg/kg/injection, schedule: Q04DX003 (ip), vehicle: saline): 107 % of control
- T/C (dose: 37.5 mg/kg/injection, schedule: Q01DX009 (ip), vehicle: saline with Tween-80): 120 % of control
- T/C (dose: 50.0 mg/kg/injection, schedule: Q01DX001 (ip), vehicle: carboxymethylcellulose (CMC)): 117 % of control
- T/C (dose: 60.0 mg/kg/injection, schedule: Q01DX Z (oral), vehicle: saline): 108 % of control and 109 % of control
- T/C (dose: 75.0 mg/kg/injection, schedule: Q04DX003 (ip), vehicle: saline): 183 % of control
- T/C (dose: 100.0 mg/kg/injection, schedule: Q04DX003 (ip), vehicle: saline): 120 % of control
- T/C (dose: 120.0 mg/kg/injection, schedule: Q01DX Z (oral), vehicle: saline): 103 % of control and 108 % of control
- T/C (dose: 240.0 mg/kg/injection, schedule: Q01DX Z (oral), vehicle: saline): 112 % of control
- T/C (dose: 480.0 mg/kg/injection, schedule: Q01DX Z (oral), vehicle: saline): 106 % of control

SMILES: CCOC(=O)c1cnc(SCc2ccccc2)[nH]c1=O
- T/C (dose: 100.0 mg/kg/injection, schedule: Q01DX009 (ip), vehicle: saline with Tween-80): 101 % of control
- T/C (dose: 200.0 mg/kg/injection, schedule: Q01DX009 (ip), vehicle: saline with Tween-80): 91 % of control
- T/C (dose: 400.0 mg/kg/injection, schedule: Q01DX009 (ip), vehicle: saline with Tween-80): 92 % of control

SMILES: Cc1cccc(C)c1OC(=O)Nc1cccc(Cl)c1
- T/C [1]: 114 % of control
- T/C [2]: 105 % of control
- T/C [3]: 105 % of control

SMILES: O=c1cc(Nc2cccc(Cl)c2)[nH]c(=O)[nH]1
- T/C (dose: 35.0 mg/kg/injection, schedule: Q01DX001 (ip), vehicle: Klucel (hydroxypropylcellulose) (HPC)): 92 % of control
- T/C (dose: 70.0 mg/kg/injection, schedule: Q01DX001 (ip), vehicle: Klucel (hydroxypropylcellulose) (HPC)): 92 % of control
- T/C (dose: 140.0 mg/kg/injection, schedule: Q01DX001 (ip), vehicle: Klucel (hydroxypropylcellulose) (HPC)): 98 % of control

SMILES: CCCCC/C=C/C/C=C/CCCCCCCC(=O)N1CCOCC1
- T/C (dose: 100.0 mg/kg/injection, schedule: Q01DX001 (ip), vehicle: saline with Tween-80): 94 % of control
- T/C (dose: 200.0 mg/kg/injection, schedule: Q01DX001 (ip), vehicle: saline with Tween-80): 96 % of control
- T/C (dose: 400.0 mg/kg/injection, schedule: Q01DX001 (ip), vehicle: saline with Tween-80): 97 % of control

SMILES: CN(CCNC(=O)C1C(c2ccccc2)C1c1ccccc1)C(=O)C1C(c2ccccc2)C1c1ccccc1 (stereo not drawn)
- T/C [1]: 95 % of control
- T/C [2]: 89 % of control
- T/C [3]: 89 % of control

SMILES: S=P1(c2ccccc2)Nc2cc(Cl)ccc2S1 (stereo not drawn)
- T/C (dose: 50.0 mg/kg/injection, schedule: Q01DX001 (ip), vehicle: saline): 105 % of control
- T/C [4]: 106 % of control

SMILES: O=c1[nH]cc(S)c(=O)[nH]1
- T/C (dose: 100.0 mg/kg/injection, schedule: Q01DX001 (ip), vehicle: carboxymethylcellulose (CMC)): 96 % of control
- T/C (dose: 100.0 mg/kg/injection, schedule: Q01DX015 (ip), vehicle: carboxymethylcellulose (CMC)): 102 % of control
- T/C (dose: 200.0 mg/kg/injection, schedule: Q01DX001 (ip), vehicle: carboxymethylcellulose (CMC)): 100 % of control

SMILES: CC1CC(C)(C)N=C(CCC[N+](=O)[O-])O1 (stereo not drawn)
- T/C (dose: 200.0 mg/kg/injection, schedule: Q04DX003 (ip), vehicle: other): 103 % of control
- T/C (dose: 400.0 mg/kg/injection, schedule: Q04DX003 (ip), vehicle: other): 88 % of control

SMILES: NS(=O)(=O)c1cc(Br)c(N=Nc2ccc(O)c3ncccc23)c(Br)c1
- T/C [4]: 100 % of control
- T/C (dose: 200.0 mg/kg/injection, schedule: Q01DX001 (ip), vehicle: saline): 100 % of control
- T/C (dose: 400.0 mg/kg/injection, schedule: Q01DX001 (ip), vehicle: saline): 108 % of control
